Data: patent US6417195B1, “Isoquinoline derivatives and isoquinoline combinatorial libraries” (Lion Bioscience AG, priority 1999, dated 2002)

System: Streptococcus pyogenes
Assay: Anti-microbial screen
Type: cell-based
Conditions: growth at 4 hrs, OD 570 nm, Todd Hewitt Broth
Procedure: Streptococcus pyogenes (ATCC# 97-03 14289) were grown in Todd Hewitt Broth (THB) (Difco Laboratories #0492-17-6) overnight until they reached an optical density of (OD═0.636@ 570 nm) by reading 0.1 ml in a 96 well microtiter plate in a Molecular Devices Thermomax. This preparation was kept frozen as stocks in 30% v/v glycerol in 1.5 ml aliquots at −70° C. until use. Prior to experiments 1.5 ml aliquots were thawed and diluted into 50 ml THB. 200 ul of this dilution was added to 92 wells of microtiter plate. To three wells THB (200 ul) was added to serve as a blank and a sterility control. Test compounds in DMSO and appropriate concentrations of DMSO were added to Growth/Solvent Controls at 0 time. Plates were read at 0 time at 570 nm in the Molecular Devices plate reader to obtain compounds correction factors for insoluble or colored compounds. Plates were read again at 4 hrs.
Percent inhibition was calculated with the following formulae:
Color correct=(O.D. 0 hr−Blank 0 hr)−(Solvent Control 0 hr−Blank 0 hr)
% Inhibition=100−O.D. test compound 4 hr−Blank 4 hr−color correct
O.D. growth/solvent control 4 hr−Blank 4 hr

Compound	% Inhibition
CN(C)CCN(CC(N)=O)C(=O)CCN1C(=O)c2ccccc2C(C(=O)NCCN2CCCC2)C1c1ccc(O)c(O)c1 (stereo not drawn) [Compound 2520-1]	9%
CN(C)CCN(CC(N)=O)C(=O)CCN1C(=O)c2ccccc2C(C(=O)NC2CCC(C(C)(C)C)CC2)C1c1ccc(O)c(O)c1 (stereo not drawn) [Compound 2520-2]	94%
CCCCN(CCCC)CCN(CC(N)=O)C(=O)CCN1C(=O)c2ccccc2C(C(=O)NCCN(CC)c2cccc(C)c2)C1c1ccc(O)c(O)c1 (stereo not drawn) [Compound 2520-721]	86%
CCCCOCCCNC(=O)C1c2ccccc2C(=O)N(CCC(=O)N(CCN(CCCC)CCCC)CC(N)=O)C1c1ccc(O)c(O)c1 (stereo not drawn) [Compound 2520-722]	58%
CCN1CCCC1CN(CC(N)=O)C(=O)CCN1C(=O)c2ccccc2C(C(=O)NCCCN2CCCCC2C)C1c1cccc([N+](=O)[O-])c1 (stereo not drawn) [Compound 2520-2341]	104%
CCN(CCNC(=O)C1c2ccccc2C(=O)N(CCC(=O)N(CC(N)=O)Cc2ccccc2)C1c1ccc(N(C)C)cc1)c1cccc(C)c1 (stereo not drawn) [Compound 2520-3137]	66%
CCCCOCCCNC(=O)C1c2ccccc2C(=O)N(CCC(=O)N(CC(N)=O)Cc2ccccc2)C1c1ccc(N(C)C)cc1 (stereo not drawn) [Compound 2520-3138]	19%
CCOC(=O)CC(C)NC(=O)C1c2ccccc2C(=O)N(CCC(=O)N(CCN(C)C)CC(N)=O)C1c1cccc(Oc2ccccc2)c1 (stereo not drawn) [Compound 2520-4745]	99%
C=CCNC(=O)C1c2ccccc2C(=O)N(CCC(=O)N(CCN(C)C)CC(N)=O)C1c1cccc(Oc2ccccc2)c1 (stereo not drawn) [Compound 2520-4746]	100%
CCN(CCNC(=O)C1c2ccccc2C(=O)N(CCC(=O)N(CC(N)=O)NC(=O)OC)C1c1cc(C(F)(F)F)cc(C(F)(F)F)c1)c1cccc(C)c1 (stereo not drawn) [Compound 2520-5545]	86%
CCCCOCCCNC(=O)C1c2ccccc2C(=O)N(CCC(=O)N(CC(N)=O)NC(=O)OC)C1c1cc(C(F)(F)F)cc(C(F)(F)F)c1 (stereo not drawn) [Compound 2520-5548]	43%
CCN1CCCC1CN(CC(N)=O)C(=O)CCN1C(=O)c2ccccc2C(C(=O)N2CCN(Cc3ccccc3)CC2)C1c1ccc(-c2ccccc2)cc1 (stereo not drawn) [Compound 2520-6332]	98%
CCN1CCCC1CN(CC(N)=O)C(=O)CCN1C(=O)c2ccccc2C(C(=O)N2CCN(C)CC2)C1c1ccc(-c2ccccc2)cc1 (stereo not drawn) [Compound 2520-6333]	78%
CCN1CCCC1CN(CC(N)=O)C(=O)CCN1C(=O)c2ccccc2C(C(=O)NCCCN2CCCCC2C)C1c1ccc(N(C)C)cc1 (stereo not drawn) [Compound 2520-7125]	100%
CCOC(=O)CCNC(=O)C1c2ccccc2C(=O)N(CCC(=O)N(CC(N)=O)CC2CCCN2CC)C1c1ccc(N(C)C)cc1 (stereo not drawn) [Compound 2520-7126]	26%
CCN(CCNC(=O)C1c2ccccc2C(=O)N(CCC(=O)N(CC(N)=O)CC2CCCN2CC)C1c1ccc(SC)cc1)c1cccc(C)c1 (stereo not drawn) [Compound 2520-7921]	100%
CCCCOCCCNC(=O)C1c2ccccc2C(=O)N(CCC(=O)N(CC(N)=O)CC2CCCN2CC)C1c1ccc(SC)cc1 (stereo not drawn) [Compound 2520-7922]	87%

Compound	% Inhibition
CN(C)CCN(CC(N)=O)C(=O)c1ccc(CN2C(=O)c3ccccc3C(C(=O)NCCN3CCCC3)C2c2ccccc2)cc1 (stereo not drawn) [Compound 2530-1]	44%
CN(C)CCN(CC(N)=O)C(=O)c1ccc(CN2C(=O)c3ccccc3C(C(=O)NCc3cccnc3)C2c2ccccc2)cc1 (stereo not drawn) [Compound 2530-2]	51%
NC(=O)CN(CCN1CCCCC1)C(=O)c1ccc(CN2C(=O)c3ccccc3C(C(=O)NCCN3CCCC3)C2c2ccccc2)cc1 (stereo not drawn) [Compound 2530-865]	20%
NC(=O)CN(CCN1CCCCC1)C(=O)c1ccc(CN2C(=O)c3ccccc3C(C(=O)NCc3cccnc3)C2c2ccccc2)cc1 (stereo not drawn) [Compound 2530-866]	11%
CCCN(CC(N)=O)C(=O)C1CCC(CN2C(=O)c3ccccc3C(C(=O)NCCN3CCCC3)C2c2cccc(C)n2)CC1 (stereo not drawn) [Compound 2530-1537]	4%
CCCN(CC(N)=O)C(=O)C1CCC(CN2C(=O)c3ccccc3C(C(=O)NCc3cccnc3)C2c2cccc(C)n2)CC1 (stereo not drawn) [Compound 2530-1538]	15%
NC(=O)CN(CCN1CCOCC1)C(=O)c1ccc(CN2C(=O)c3ccccc3C3C(=O)N4CCN(Cc5ccccc5)c5c(-c6ccccc6)ccc(c54)C32)cc1 (stereo not drawn) [Compound 2530-2501]	109%
CCN(CC)CCCC(C)NC(=O)C1c2ccccc2C(=O)N(Cc2ccc(C(=O)N(CC(N)=O)CC3CCCN3CC)cc2)C1c1ccc(O)cc1 (stereo not drawn) [Compound 2530-3185]	4%
CCN1CCCC1CN(CC(N)=O)C(=O)c1ccc(CN2C(=O)c3ccccc3C(C(=O)NC3CCC(C(C)(C)C)CC3)C2c2ccc(O)cc2)cc1 (stereo not drawn) [Compound 2530-3186]	101%
CCc1ccc(C2C(C(=O)NCCN(C)C)c3ccccc3C(=O)N2Cc2ccc(C(=O)N(CCOC)CC(N)=O)cc2)cc1 (stereo not drawn) [Compound 2530-4162]	30%
CSc1ccc2c3c1C(Br)CCN3C(=O)C1c3ccccc3C(=O)N(Cc3ccc(C(=O)N(CCc4ccc(Cl)cc4Cl)CC(N)=O)cc3)C21 (stereo not drawn) [Compound 2530-4401]	45%
CSc1ccc(C2C(C(=O)NCCN(C)C)c3ccccc3C(=O)N2Cc2ccc(C(=O)N(CCc3ccc(Cl)cc3Cl)CC(N)=O)cc2)cc1 (stereo not drawn) [Compound 2530-4402]	96%
CC(C)(C)C1CCC(NC(=O)C2c3ccccc3C(=O)N(CC3CCC(C(=O)N(CCCn4ccnc4)CC(N)=O)CC3)C2c2ccccc2)CC1 (stereo not drawn) [Compound 2530-4818]	61%
NC(=O)CN(CCCn1ccnc1)C(=O)C1CCC(CN2C(=O)c3ccccc3C3C(=O)N4CCC(N5CCCC5)c5cccc(c54)C32)CC1 (stereo not drawn) [Compound 2530-4819]	20%
C=CCN(CC(N)=O)C(=O)c1ccc(CN2C(=O)c3ccccc3C3C(=O)N4CCOc5c(O)ccc(c54)C32)cc1 (stereo not drawn) [Compound 2530-6447]	8%
C=CCN(CC(N)=O)C(=O)c1ccc(CN2C(=O)c3ccccc3C(C(=O)NCCCCCCCCCCCC)C2c2ccc(O)cc2)cc1 (stereo not drawn) [Compound 2530-6448]	53%
